For orientation: IC50 means the concentration that inhibits the measured activity by half.

Residues, ends and D or L forms follow the SMILES beside them. *: point of attachment. N4 = 6-(carboxy)-1,4,8,11-tetraazaundecane chelator, NCCNCC(CNCCN)C(=O)*; Butanoyl(4-(4-MePh)) = Cc1ccc(CCCC(=O)*)cc1; X1 = NCCNCC(CNCCN)C(=O)*

One series concerns the target T1, human NTS1R (Homo sapiens, UniProt P30989).
T1 construct: freshly prepared membrane homogenates of human colon adenocarcinoma WiDr cells; endogenous in cells; host or cells: WiDr human colon adenocarcinoma cells (membrane homogenates)
Nature of the series: Competition binding against [125I]I-Tyr3-NT in WiDr cell membrane homogenates. The settings on record: WiDr cell membranes, 1 h at 22 °C, mean ± sd; read-out: IC50, [125I]I-Tyr3-NT displacement from NTS1R binding sites. The procedure:
Aliquots of the cell membrane homogenates from WiDr cells (collected and stored at −80 °C in Tris/EDTA:10 mM of Tris, 0.1 mM of EDTA, pH 7.4) were thawed, combined and diluted in cold BB. In RIA tubes in triplicate, the test peptide (30 µL) of each concentration point, radioligand (70 µL) and membrane homogenate (200 µL) were consecutively added and thoroughly vortexed. Samples were placed for 1 h in the Incubator-Orbital Shaker (MPM Instr. Srl; Bernareggio, Italy) at 22 °C under constant steering. […] The samples were aspirated, and individual filters corresponding to each tube were collected in separate plastic tubes and measured for radioactivity on the γ-counter. Inhibition curves were plotted and the half maximal inhibitory concentration (IC50) values were calculated by applying a nonlinear one-site model (GraphPad Prism—6 Software, San Diego, CA, USA). The results for each compound are given as the average IC50 values ± sd of at least three independent repetitions of the experiment performed in triplicate.

For the next series, the system named is AsPC-1 cells. Nature of the series: Time-dependent radioligand internalization in AsPC-1 cells. The settings on record: 37 °C, at 1 h, non-specific (1 μM NT) subtracted. The class given is cell-based, human. The protocol: The time-dependent internalization of [^99mTc]Tc-DT10/11/12 was directly compared with [^99mTc]Tc-DT1 via incubation in AsPC-1 cells at 37 °C for 15 min, 30 min, 1 h and 2 h. The cells were seeded in 6-well plates (1 × 10^6 per well) and left in the incubator overnight. The next day, the cells were washed twice with ice-cold internalization medium (IM, RPMI supplemented with 1% FBS). The plates were placed on the bench and the following solutions were successively added per well: warm IM (1200 µL at 37 °C), radioligand (250 fmol in 150 µL of IM) and either IM (150 µL; 3 upper wells: total series) or NT (10^−5 M in IM, 3 bottom wells: non-specific series). The plates were placed in the incubator at 37 °C and, at the predetermined time points, were retrieved and placed on ice. […] The three fractions collected per well in separate RIA tubes (supernatant, MB and internalized) were measured for their radioactivity content on the γ-counter. The radioactivity of each fraction was then assessed as a percentage of the initial activity added per well. By subtracting the non-specific fractions from the respective total fractions, the specific MB and internalization fractions could be determined. […] The results were expressed as mean ± sd.

The next series deals with albumin (Bos taurus, UniProt P02769). The class given is in vitro ADME, bovine. The protocol: The binding of the new [^99mTc]Tc-DT10/11/12 and the [^99mTc]Tc-DT1 reference to albumin was compared via the incubation of radioligands in BSA-treated 6-well plates. Accordingly, HEPES-buffered saline (150 mM of NaCl, 20 mM of HEPES, pH 7.4) supplemented with 0.5% w/v BSA (1200 µL of HBS-BSA) was added to each well, followed by the radioligand (250 fmol peptide, in 150 µL of HBS) and either HBS-BSA (150 µL, total binding) or Ibuprofen (22.2 mg/mL in HBS, 150 µL), to reach a total final volume of 1.5 mL. The plates were incubated in triplicate at 37 °C for 30 min in the incubator. Next, the supernatants were discarded and the wells were treated with 1 M NaOH (2 × 600 µL). The lysates were combined and collected in RIA tubes for radioactivity measurement on the γ-counter. Binding to albumin was calculated as a percentage of the measured activity vs. the activity originally added per well. The experiments were performed at least three times in triplicate and the results represent the average binding to albumin ± sd.
Sequence of albumin (P02769 25-607): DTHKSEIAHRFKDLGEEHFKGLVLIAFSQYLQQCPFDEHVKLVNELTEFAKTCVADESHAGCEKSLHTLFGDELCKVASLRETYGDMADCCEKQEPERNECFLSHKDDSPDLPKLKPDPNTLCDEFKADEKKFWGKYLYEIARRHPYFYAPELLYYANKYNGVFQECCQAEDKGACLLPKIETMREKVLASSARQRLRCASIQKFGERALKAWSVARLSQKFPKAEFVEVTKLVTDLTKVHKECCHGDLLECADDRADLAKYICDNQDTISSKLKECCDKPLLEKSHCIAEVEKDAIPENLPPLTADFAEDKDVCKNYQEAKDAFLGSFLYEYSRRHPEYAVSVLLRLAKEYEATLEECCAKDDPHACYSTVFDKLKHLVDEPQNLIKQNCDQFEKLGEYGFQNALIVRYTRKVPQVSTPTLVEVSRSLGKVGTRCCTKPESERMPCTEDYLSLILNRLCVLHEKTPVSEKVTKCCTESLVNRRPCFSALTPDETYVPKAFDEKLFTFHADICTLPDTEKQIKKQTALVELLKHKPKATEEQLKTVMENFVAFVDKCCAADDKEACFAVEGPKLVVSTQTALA

T1 sequence (P30989 whole entry): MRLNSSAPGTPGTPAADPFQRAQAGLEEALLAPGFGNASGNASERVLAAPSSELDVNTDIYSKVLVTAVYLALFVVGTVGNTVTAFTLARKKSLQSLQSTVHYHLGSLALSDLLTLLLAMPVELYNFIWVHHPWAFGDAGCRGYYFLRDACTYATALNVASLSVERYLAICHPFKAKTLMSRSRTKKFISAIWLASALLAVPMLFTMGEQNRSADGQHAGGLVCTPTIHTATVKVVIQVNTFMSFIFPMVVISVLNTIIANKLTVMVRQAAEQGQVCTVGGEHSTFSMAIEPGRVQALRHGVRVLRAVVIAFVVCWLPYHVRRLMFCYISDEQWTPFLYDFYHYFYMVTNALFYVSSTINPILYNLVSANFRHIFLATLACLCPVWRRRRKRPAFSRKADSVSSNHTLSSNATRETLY

Turning to `CC[C@H](C)[C@H](NC(=O)[C@H](Cc1ccc(O)cc1)NC(=O)[C@@H]1CCCN1C(=O)[C@H](CCCNC(=N)N)NC(=O)[C@H](CCCNC(=N)N)NC(=O)CNC(=O)C(CNCCN)CNCCN)C(=O)N[C@@H](CC(C)C)C(=O)O` [DT1, N4-Gly-Arg-Arg-Pro-Tyr-Ile-Leu-OH] (X1-GRRPYIL-OH), the IC50 on human NTS1R turned out to be 140 ± 10 pM.

For the molecule `CC[C@H](C)[C@H](NC(=O)[C@H](Cc1ccc(O)cc1)NC(=O)[C@@H]1CCCN1C(=O)[C@H](CCCNC(=N)N)NC(=O)[C@H](CCCNC(=N)N)NC(=O)[C@H](CCCCNC(=O)CCCc1ccc(C)cc1)NC(=O)C(CNCCN)CNCCN)C(=O)N[C@@H](CC(C)C)C(=O)O` [DT10] (X1-K(Butanoyl(4-(4-MePh)))RRPYIL-OH), the IC50 at human NTS1R amounted to 60 ± 30 pM.

Consider “[^99mTc]Tc-DT1: Tc-99m labeled DT1 (N4-Gly-Arg-Arg-Pro-Tyr-Ile-Leu-OH), unmodified reference radioligand (N4-GRRPYIL-OH; also: 99mTc complexed by N4 chelator)”, for which, in the series with AsPC-1 cells, the specific internalization is reported as 15.1 ± 2.3%. Also, the binding to albumin with albumin is < 1.0%.

Values taken from article PMC10647616, “Side-Chain Modified [^99mTc]Tc-DT1 Mimics: A Comparative Study in NTS1R-Positive Models” (International Journal of Molecular Sciences, 2023).
